Data set [1] is described as follows: Fraction unbound in Wistar Han rat liver at 2 uM incubated for 6 hrs by equilibrium dialysis method.
Data set [2] in a line: Unbound tissue partition coefficient, ratio of drug level in adipose to plasma in Wistar Han rat at 1 to 2 mg/kg, iv infused for 10 to 20 hrs by LC-MS/MS analysis. The following applies: adipose/plasma.
Data set [3] can be described thus: Fraction unbound in Wistar Han rat heart at 2 uM incubated for 6 hrs by equilibrium dialysis method.
Data set [4] is described as follows: Unbound tissue partition coefficient, ratio of drug level in skeletal muscle to plasma in Wistar Han rat at 1 to 2 mg/kg, iv infused for 10 to 20 hrs by LC-MS/MS analysis. The following applies: skeletal muscle/plasma.
A short description of data set [5]: Unbound tissue partition coefficient, ratio of drug level in brain to plasma in Wistar Han rat at 1 to 2 mg/kg, iv infused for 10 to 20 hrs by LC-MS/MS analysis. The following applies: brain/plasma.
Data set [6] can be described thus: Fraction unbound in Wistar Han rat white adipose tissue at 2 uM incubated for 6 hrs by equilibrium dialysis method. (Equilibrium dialysis compares concentrations on both sides of a semipermeable membrane.)
Data set [7] in a line: Drug concentration in total white adipose tissue in Wistar Han rat at 1 to 2 mg/kg, iv infused for 10 to 20 hrs by LC-MS/MS analysis. The following applies: in vivo.
A short description of data set [8]: Drug concentration in total liver in Wistar Han rat at 1 to 2 mg/kg, iv infused for 10 to 20 hrs by LC-MS/MS analysis. The following applies: in vivo.
Data set [9] is described as follows: Drug concentration in total skeletal muscle in Wistar Han rat at 1 to 2 mg/kg, iv infused for 10 to 20 hrs by LC-MS/MS analysis. The following applies: in vivo.
Data set [10] can be described thus: Unbound tissue partition coefficient, ratio of drug level in liver to plasma in Wistar Han rat at 1 to 2 mg/kg, iv infused for 10 to 20 hrs by LC-MS/MS analysis. The following applies: liver/plasma.
A short description of data set [11]: Apparent permeability of the compound across dog RRCK cells by MDCK-LE assay.
Data set [12] in a line: Unbound tissue partition coefficient, ratio of drug level in heart to plasma in Wistar Han rat at 1 to 2 mg/kg, iv infused for 10 to 20 hrs by LC-MS/MS analysis. The following applies: heart/plasma.
Data set [13] in a line: Total plasma concentration in Wistar Han rat at 1 to 2 mg/kg, iv infused for 10 to 20 hrs by LC-MS/MS analysis. The following applies: in vivo.
The nature of data set [14]: Drug concentration in total brain in Wistar Han rat at 1 to 2 mg/kg, iv infused for 10 to 20 hrs by LC-MS/MS analysis. The following applies: in vivo.
The nature of data set [15]: Fraction unbound in Wistar Han rat skeletal muscle at 2 uM incubated for 6 hrs by equilibrium dialysis method.
A short description of data set [16]: Drug concentration in total heart in Wistar Han rat at 1 to 2 mg/kg, iv infused for 10 to 20 hrs by LC-MS/MS analysis. The following applies: in vivo.
Data set [17] can be described thus: Fraction unbound in Wistar Han rat brain at 2 uM incubated for 6 hrs by equilibrium dialysis method.
Data set [18] can be described thus: Fraction unbound in Wistar Han rat plasma at 2 uM incubated for 6 hrs by equilibrium dialysis method.

As for `Oc1noc2cc(Cl)c(Cl)cc12`, the fraction unbound (commonly free concentration divided by total concentration) at 6 h, 2 µM in data set [1] was determined as 0.105; in data set [3], 0.13; in data set [6], 0.714; in data set [15] it was 0.153; in data set [17], 0.103; in data set [18], 0.00445. Also, the Kp uu in data set [2] was 9.7; in data set [4], 1.2; in [5], 1.1; in data set [10], 0.22; in data set [12], 10. Further, the Ct is 29 ng/mL in data set [7]; 4.7 ng/mL in data set [8]; 17 ng/mL in data set [9]; 24 ng/mL in data set [14]; 180 ng/mL in [16]. Also, in data set [11], the Papp (in general, the rate of passage across a membrane or cell layer, normalised by area and donor concentration) was found to be 29 ×10⁻⁶ cm/s. The compound also showed a Cp in data set [13] of 500 ng/mL.

Take `C[C@H](c1nc2cnc(N3CCC[C@@H](C(=O)N4CCCC4)C3)nc2[nH]1)n1cc(Cl)cn1`: the fraction unbound at 6 h, 2 µM in data set [1] was 0.111; in data set [3], 0.121; in [6], 0.256; in [15] it was 0.0901; in [17], 0.155; in data set [18] it was 0.186. Moreover, the Kp uu is 1.1 in data set [2]; 0.54 in data set [4]; 0.013 in data set [5]; 2.8 in data set [10]; 1.5 in [12]. Besides, the Ct in data set [7] stood at 39 ng/mL; in data set [8] it was 240 ng/mL; in data set [9], 56 ng/mL; in data set [14], 1.8 ng/mL; in data set [16] it was 120 ng/mL. Further, the Papp in [11] turned out to be 24 ×10⁻⁶ cm/s. Besides, in [13], the Cp was 50 ng/mL.

For `Cn1ncc(-c2ccc(C(=O)N(c3ncccc3Cl)[C@@H]3CCCNC3)cc2)c1C(=O)O`, the fraction unbound at 6 h, 2 µM stood at 0.287 in [1]; 1 in data set [3]; 0.736 in data set [6]; 0.595 in [15]; 1 in data set [17]; 0.692 in [18]. The Kp uu was 0.21 in [2]; 0.1 in data set [4]; 0.16 in [5]; 5 in data set [10]; 5.3 in data set [12]. Besides, the Ct in data set [7] came out at 5.4 ng/mL; in [8] it was 630 ng/mL; in [9] it was 7.4 ng/mL; in data set [14], 6.8 ng/mL; in data set [16], 210 ng/mL. The Papp in data set [11] stood at 0.51 ×10⁻⁶ cm/s. Also, the Cp in data set [13] was found to be 55 ng/mL.

As for `CC(C)C[C@H](Nc1ccc(C(=O)NCCC(=O)O)cn1)c1ccc(-c2ccc(C(F)(F)F)cn2)cc1`, the fraction unbound at 6 h, 2 µM is 0.00684 in data set [1]; 0.00934 in [3]; 0.119 in [6]; 0.011 in data set [15]; 0.00795 in [17]; 0.0141 in data set [18]. Besides, the Kp uu in data set [2] stood at 0.024; in [4] it was 0.02; in data set [5] it was 0.0042; in data set [10], 12; in data set [12], 0.57. For the same compound, the Ct is 0.77 ng/mL in [7]; 1000 ng/mL in [8]; 0.8 ng/mL in data set [9]; 0.95 ng/mL in [14]; 45 ng/mL in data set [16]. Moreover, the Papp in data set [11] turned out to be 0.1 ×10⁻⁶ cm/s. The same compound gave a Cp in [13] of 45 ng/mL.

As for `O=C(NC(c1ccccc1)c1ccccc1)C1CC1`, the fraction unbound at 6 h, 2 µM in data set [1] was 0.12; in data set [3], 0.1; in [6], 0.0208; in [15], 0.0833; in [17] it was 0.079; in data set [18], 0.0667. Besides, the Kp uu in data set [2] turned out to be 3.9; in data set [4], 0.68; in [5], 3.2; in data set [10], 5.4; in [12], 4.7. In addition, the Ct in data set [7] worked out at 880 ng/mL; in data set [8], 230 ng/mL; in data set [9], 40 ng/mL; in [14], 200 ng/mL; in [16] it was 230 ng/mL. Further, the Papp in data set [11] is 35 ×10⁻⁶ cm/s. In addition, the Cp in data set [13] turned out to be 79 ng/mL.

Regarding `CO[C@@H]1C[C@H](C(=O)Nc2ccc(-n3cc(Cl)ccc3=O)cc2F)N(C(=O)Nc2ccc(Cl)cc2)C1`, the fraction unbound at 6 h, 2 µM in data set [1] was found to be 0.0949; in [3], 0.0772; in [6], 0.177; in data set [15], 0.0842; in [17], 0.0391; in data set [18], 0.0543. Besides, the Kp uu came to 7.9 in data set [2]; 2.4 in data set [4]; 0.064 in data set [5]; 8.6 in [10]; 11 in [12]. Further, the Ct in data set [7] was determined as 300 ng/mL; in data set [8], 600 ng/mL; in [9] it was 180 ng/mL; in [14] it was 10 ng/mL; in data set [16], 960 ng/mL. In data set [11], the Papp amounted to 21 ×10⁻⁶ cm/s. Moreover, the Cp in data set [13] was found to be 120 ng/mL.

For the compound `Cc1nc2cc(-c3cc(F)cc(C#N)c3)ccc2s1`, the fraction unbound at 6 h, 2 µM in data set [1] came out at 0.00815; in data set [3] it was 0.0101; in [6], 0.000864; in data set [15] it was 0.0047; in [17], 0.00394; in data set [18] it was 0.00655. Also, the Kp uu in [2] was 2.6; in data set [4] it was 0.6; in [5], 1.5; in data set [10], 20; in [12], 3.3. In addition, the Ct in data set [7] stood at 570 ng/mL; in [8] it was 480 ng/mL; in data set [9], 25 ng/mL; in data set [14] it was 73 ng/mL; in data set [16] it was 66 ng/mL. Also, the Papp in [11] amounted to 34 ×10⁻⁶ cm/s. Further, in data set [13], the Cp came to 31 ng/mL.

In the case of `Cc1ccc(NC(=O)N2CCN(Cc3sc4ccccc4c3C)CC2)nc1`, the fraction unbound at 6 h, 2 µM in [1] turned out to be 0.0191; in data set [3], 0.00576; in data set [6], 0.00709; in data set [15], 0.0067; in data set [17], 0.0099; in data set [18], 0.0044. The Kp uu in data set [2] amounted to 4.8; in [4], 0.65; in [5], 2.5; in data set [10], 31; in [12], 1.9. The Ct in data set [7] worked out at 240 ng/mL; in data set [8], 630 ng/mL; in data set [9], 37 ng/mL; in [14] it was 91 ng/mL; in data set [16], 130 ng/mL. Also, in data set [11], the Papp was 25 ×10⁻⁶ cm/s. In data set [13], this compound had a Cp of 92 ng/mL.

(Values after ChEMBL document CHEMBL4373746, “Structural attributes influencing unbound tissue distribution” (Eur J Med Chem, 2020).)
